Measured values: PubChem BioAssay (NCI)
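Following 48 hours of exposure in 96-well plates, responses at five concentrations were used to interpolate endpoints linearly. Abbreviation: GI50, concentration required for 50% inhibition of growth. Definition used: TGI = concentration required for complete inhibition of growth.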

Tests used:
Assay in all cases: NCI tumour cell line growth inhibition, 48 h
[1] = system: COLO 205 colon
[2] = system: SNB-75 CNS
[3] = system: U251 CNS
[4] = system: NCI/ADR-RES ovarian
[5] = system: SF-295 CNS
[6] = system: BT-549 breast
[7] = system: SF-268 CNS
[8] = system: SK-MEL-2 melanoma
[9] = system: SF-539 CNS
[10] = system: T-47D breast
[11] = system: HCT-116 colon
[12] = system: SK-OV-3 ovarian
[13] = system: NCI-H522 lung
[14] = system: HOP-92 NSCLC
[15] = system: RPMI-8226 leukemia
[16] = system: OVCAR-5 ovarian
[17] = system: SNB-19 CNS
[18] = system: HS 578T breast
[19] = system: MCF7 breast
[20] = system: MDA-MB-231 breast
[21] = system: TK-10 renal
[22] = system: HCC-2998 colon
[23] = system: MOLT-4 leukemia
[24] = system: HL-60(TB) leukemia
[25] = system: 786-0 renal
[26] = system: SK-MEL-5 melanoma
[27] = system: UO-31 renal
[28] = system: IGROV1 ovarian

**Q.** `N=C1S/C(=C/c2ccc(-c3ccc4c(c3)C(=O)NC4=O)o2)C(=O)N1c1ccc(Br)cc1` was tested. Which GI50 [1] did it give?
**A.** > 100 µM

**Q.** What about the TGI [1] of the same molecule?
**A.** > 100 µM

**Q.** And the GI50 [2]?
**A.** 2.17 µM

**Q.** What about the TGI [2] of the same molecule?
**A.** 6.76 µM

**Q.** And the GI50 [3]?
**A.** 2.91 µM

**Q.** And the TGI [3]?
**A.** 8.23 µM

**Q.** And the GI50 [4]?
**A.** > 100 µM

**Q.** What about the TGI [4] of the same molecule?
**A.** > 100 µM

**Q.** And the GI50 [5]?
**A.** 2.96 µM

**Q.** And the TGI [5]?
**A.** 8.95 µM

**Q.** And the GI50 [6]?
**A.** 4.31 µM

**Q.** And the TGI [6]?
**A.** 56 µM

**Q.** What about the GI50 [7] of the same molecule?
**A.** 6.3 µM

**Q.** And the TGI [7]?
**A.** > 100 µM

**Q.** What about the GI50 [8] of the same molecule?
**A.** 11.7 µM

**Q.** What about the TGI [8] of the same molecule?
**A.** 41.8 µM

**Q.** What about the GI50 [9] of the same molecule?
**A.** > 100 µM

**Q.** What about the TGI [9] of the same molecule?
**A.** > 100 µM

**Q.** And the GI50 [10]?
**A.** 2.92 µM

**Q.** What about the TGI [10] of the same molecule?
**A.** > 100 µM

**Q.** And the GI50 [11]?
**A.** 3.65 µM

**Q.** And the TGI [11]?
**A.** > 100 µM

**Q.** What about the GI50 [12] of the same molecule?
**A.** 6.19 µM

**Q.** And the TGI [12]?
**A.** > 100 µM

**Q.** What about the GI50 [13] of the same molecule?
**A.** 3.63 µM

**Q.** And the TGI [13]?
**A.** > 100 µM

**Q.** And the GI50 [14]?
**A.** 1.81 µM

**Q.** And the TGI [14]?
**A.** 8.56 µM

**Q.** And the GI50 [15]?
**A.** 4.2 µM

**Q.** And the TGI [15]?
**A.** > 100 µM

**Q.** What about the GI50 [16] of the same molecule?
**A.** > 100 µM

**Q.** What about the TGI [16] of the same molecule?
**A.** > 100 µM

**Q.** What about the GI50 [17] of the same molecule?
**A.** > 100 µM

**Q.** What about the TGI [17] of the same molecule?
**A.** > 100 µM

**Q.** What about the GI50 [18] of the same molecule?
**A.** 7.5 µM

**Q.** What about the TGI [18] of the same molecule?
**A.** > 100 µM

**Q.** And the GI50 [19]?
**A.** 3.68 µM

**Q.** What about the TGI [19] of the same molecule?
**A.** > 100 µM

**Q.** And the GI50 [20]?
**A.** 4.21 µM

**Q.** What about the TGI [20] of the same molecule?
**A.** > 100 µM

**Q.** What about the GI50 [21] of the same molecule?
**A.** 3.32 µM

**Q.** And the TGI [21]?
**A.** > 100 µM

**Q.** And the GI50 [22]?
**A.** > 100 µM

**Q.** What about the TGI [22] of the same molecule?
**A.** > 100 µM

**Q.** What about the GI50 [23] of the same molecule?
**A.** > 100 µM

**Q.** And the TGI [23]?
**A.** > 100 µM

**Q.** What about the GI50 [24] of the same molecule?
**A.** > 100 µM

**Q.** What about the TGI [24] of the same molecule?
**A.** > 100 µM

**Q.** And the GI50 [25]?
**A.** 3.45 µM

**Q.** And the TGI [25]?
**A.** > 100 µM

**Q.** And the GI50 [26]?
**A.** 3.48 µM

**Q.** And the TGI [26]?
**A.** > 100 µM

**Q.** What about the GI50 [27] of the same molecule?
**A.** > 100 µM

**Q.** What about the TGI [27] of the same molecule?
**A.** > 100 µM

**Q.** And the GI50 [28]?
**A.** 15.9 µM

**Q.** What about the TGI [28] of the same molecule?
**A.** > 100 µM
